Consider six compounds from PubChem BioAssay (NCI).

Values joined by “and” are separate entries in the source; they are usually repeats but may differ in a detail not shown here. Equal entries are not always repeated.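 Exposure lasted 48 hours, with cells grown in 96-well plates and compounds tested at five concentrations. GI50 marks 50% less growth. The concentration for full growth arrest is given as TGI.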

Among the test systems are HS 578T breast; M14 melanoma; UACC-257 melanoma; EKVX NSCLC; SW-620 colon; SR leukemia; NCI/ADR-RES ovarian; RXF 393 renal; OVCAR-8 ovarian; OVCAR-5 ovarian.
Common to all, as to experiment: NCI anticancer screen, dose series, 48 h

For the compound `CCOc1cccc(/C=N/NC(=O)c2cccc(Nc3ccnc(C(F)(F)F)c3)c2)c1O`, the GI50 was 5.53 µM in the experiment with HS 578T breast; 1.22 µM with M14 melanoma; 3.09 µM in the experiment with UACC-257 melanoma; 1.55 µM in the experiment on EKVX NSCLC; 3.04 µM in the experiment on SW-620 colon; 0.212 µM with SR leukemia. The GI50 in the experiment with NCI/ADR-RES ovarian is 3.02 µM; in the experiment with RXF 393 renal, 1.66 µM; in the experiment with OVCAR-8 ovarian it was 1.12 µM; in the experiment on OVCAR-5 ovarian, 2.33 µM. Besides, the TGI in the experiment with HS 578T breast was 72.7 µM; in the experiment on M14 melanoma, 7.88 µM; in the experiment on UACC-257 melanoma, 24 µM; in the experiment on EKVX NSCLC, greater than 64.5 µM; in the experiment on SW-620 colon it was greater than 88.7 µM; in the experiment on SR leukemia, 8.67 µM. In addition, the TGI in the experiment on NCI/ADR-RES ovarian stood at 27.8 µM; in the experiment on RXF 393 renal it was 44.6 µM; in the experiment with OVCAR-8 ovarian it was 37 µM; in the experiment with OVCAR-5 ovarian, 60.7 µM.
On to `CCN(CC)CCCC(CCl)Nc1ccnc2cc(Cl)ccc12` (stereo unspecified), for which the GI50 in the experiment on HS 578T breast is 17.3 µM and 18.1 µM; with M14 melanoma, 2.13 µM and 2.39 µM; with UACC-257 melanoma, 3.78 µM and 14.6 µM; in the experiment on EKVX NSCLC it was 30.4 µM and 29.1 µM; in the experiment on SW-620 colon, 22.5 µM and 33.5 µM; with SR leukemia it was 0.421 µM. The GI50 in the experiment with NCI/ADR-RES ovarian was 25.2 µM and 23.1 µM; in the experiment with RXF 393 renal, 4.95 µM and 10.6 µM; in the experiment with OVCAR-8 ovarian, 20.2 µM and 19.4 µM; with OVCAR-5 ovarian it was 11.4 µM and 23.5 µM. The TGI is 42.5 µM and 44.3 µM with HS 578T breast; 4.38 µM and 4.92 µM in the experiment with M14 melanoma; 15.3 µM and 31.1 µM in the experiment with UACC-257 melanoma; 87.2 µM and > 100 µM with EKVX NSCLC; 54.4 µM and > 100 µM with SW-620 colon; 3.25 µM with SR leukemia. Further, the TGI in the experiment with NCI/ADR-RES ovarian is 57.3 µM and 67.7 µM; with RXF 393 renal, 24.5 µM and > 49.1 µM; in the experiment with OVCAR-8 ovarian, 54.8 µM and 71.3 µM; in the experiment on OVCAR-5 ovarian it was 28.6 µM and > 61.3 µM.
For `CCN1C(=O)/C(=C/c2c(Cl)[nH]c3cc(C)c(OC)cc23)c2ccccc21`, the GI50 in the experiment on HS 578T breast was 2.86 µM; in the experiment on M14 melanoma, 4.42 µM; in the experiment on UACC-257 melanoma, 6.47 µM; in the experiment on EKVX NSCLC, 7.58 µM; with SW-620 colon, 3.67 µM; with SR leukemia, 2.49 µM. The GI50 is 4.65 µM in the experiment with NCI/ADR-RES ovarian, 1.11 µM in the experiment on RXF 393 renal, 4.29 µM in the experiment on OVCAR-8 ovarian and 16.5 µM with OVCAR-5 ovarian. Further, the TGI in the experiment with HS 578T breast was 7.23 µM; in the experiment with M14 melanoma, 53.9 µM; in the experiment with UACC-257 melanoma, greater than 100 µM; with EKVX NSCLC it was 80.4 µM; in the experiment with SW-620 colon it was greater than 100 µM; with SR leukemia, greater than 100 µM. Also, the TGI in the experiment on NCI/ADR-RES ovarian is 65 µM; in the experiment with RXF 393 renal, 34 µM; with OVCAR-8 ovarian it was greater than 100 µM; with OVCAR-5 ovarian, 85.3 µM.
For the compound `Cc1cn(-c2cc(NC(=O)c3cccc(C#Cc4cccc5[nH]nc(N)c45)c3)cc(C(F)(F)F)c2)cn1`, the GI50 in the experiment with HS 578T breast is 2.86 µM; in the experiment on M14 melanoma, 2.48 µM; with UACC-257 melanoma, 6.59 µM; in the experiment with EKVX NSCLC it was 7.38 µM; in the experiment on SW-620 colon it was 4.22 µM; in the experiment on SR leukemia, 5.06 µM. The GI50 was 13.5 µM in the experiment with NCI/ADR-RES ovarian, 5.1 µM with RXF 393 renal, 4.99 µM in the experiment on OVCAR-8 ovarian and 3.16 µM in the experiment with OVCAR-5 ovarian. The TGI with HS 578T breast was 42.2 µM; with M14 melanoma, 17.4 µM; in the experiment on UACC-257 melanoma, 78.3 µM; in the experiment on EKVX NSCLC it was greater than 100 µM; in the experiment with SW-620 colon it was greater than 100 µM; in the experiment on SR leukemia it was greater than 100 µM. The TGI is greater than 100 µM with NCI/ADR-RES ovarian, 21.6 µM in the experiment on RXF 393 renal, 36.3 µM with OVCAR-8 ovarian and greater than 100 µM in the experiment on OVCAR-5 ovarian.
As for `COc1ccc2c(c1)NC1=C(C(=O)OC1)C2c1cc(OC)c(OC)c(OC)c1` (stereo unspecified), the GI50 is less than 0.01 µM in the experiment with HS 578T breast; less than 0.01 µM in the experiment with M14 melanoma; less than 0.01 µM in the experiment on UACC-257 melanoma; 12 µM with EKVX NSCLC; less than 0.01 µM in the experiment with SW-620 colon; less than 0.01 µM with SR leukemia. For the same compound, the GI50 in the experiment on NCI/ADR-RES ovarian, with RXF 393 renal, with OVCAR-8 ovarian and in the experiment on OVCAR-5 ovarian was less than 0.01 µM in each case. Moreover, the TGI with HS 578T breast, with M14 melanoma, in the experiment on UACC-257 melanoma, in the experiment on EKVX NSCLC, in the experiment on SW-620 colon and in the experiment with SR leukemia was greater than 100 µM in each case. Moreover, the TGI in the experiment with NCI/ADR-RES ovarian is 0.0277 µM; with RXF 393 renal, 61.8 µM; with OVCAR-8 ovarian it was greater than 100 µM; in the experiment with OVCAR-5 ovarian it was greater than 100 µM.
On to `CCCCCCCCCCCCCCCCCCOC[C@H](COP(=O)(O)O[C@H]1[C@H](O)[C@@H](O)[C@H](O)C[C@H]1O)OC`, for which the GI50 in the experiment with HS 578T breast is > 100 µM and 17.9 µM; with M14 melanoma it was > 100 µM and 12 µM; in the experiment on UACC-257 melanoma, > 100 µM and 17 µM; in the experiment with EKVX NSCLC, 82.8 µM and 13.3 µM; in the experiment with NCI/ADR-RES ovarian it was > 100 µM and 18.3 µM; in the experiment on RXF 393 renal, 35.4 µM and 5.76 µM. Moreover, in the experiment with OVCAR-8 ovarian, the GI50 is > 100 µM and 16.9 µM. The TGI with HS 578T breast was > 100 µM and 34.8 µM; in the experiment with M14 melanoma, > 100 µM and 24.7 µM; with UACC-257 melanoma it was > 100 µM and 31.5 µM; with EKVX NSCLC, > 100 µM and 26.8 µM; in the experiment with SW-620 colon it was > 100 µM and 39.3 µM; in the experiment with SR leukemia it was 45.9 µM and 40.8 µM. Also, the TGI is > 100 µM and 33.5 µM in the experiment on NCI/ADR-RES ovarian; > 100 µM and 21.1 µM in the experiment with RXF 393 renal; > 100 µM and 31.8 µM in the experiment on OVCAR-8 ovarian.
